Drawing on US20240109905A1, “4-ALKOXY-6-OXO-PYRIDAZINE DERIVATIVES MODULATING NLRP3” (JANSSEN PHARMACEUTICA NV, priority 2021, published 2024), this text covers AC50 for 48 compounds.

Test [1] concerns IL-1β. Nature of the test: PBMC assay: IL-1β release after LPS stimulation. In kind it is cell-based. The note with it: PBMC; human PBMCs, 30 min compound, 100 ng/ml LPS for 6 hrs, MSD; read-out: IL1β AC50. A digest of the protocol: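 Thawed PBMCs from healthy donors (7.5×10^4 cells/well) were preincubated with serially diluted compound for 30 min at 37 °C, then stimulated with 100 ng/ml LPS (final) for 6 h. IL-1β in the supernatant was measured by MSD immunoassay, and AC50 values were derived from the concentration-response data.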

For test [2], the system named is TNF. The test is described as follows: PBMC assay: TNF cytokine level after LPS stimulation. As to conditions: PBMC; human PBMCs, 30 min compound, 100 ng/ml LPS for 6 hrs, MSD. The format is cell-based. A digest of the protocol: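 Thawed human PBMCs from healthy donors (7.5×10^4 per well, RPMI + 10% FBS) preincubated 30 min at 37° C with 1:3 serially diluted compounds, then stimulated 6 h with 100 ng/ml LPS (final). Supernatant TNF measured by MSD immunoassay; EC50/AC50 derived.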

In the case of `CC(C)COc1cc(=O)n(CC(=O)NC23CC(C2)C3)nc1C(C)C` [Compound 110], the figures for the AC50 in test [1] and in test [2] were 1.44 µM and over 20 µM, respectively.
In the same order, the values of `COCC12CC(NC(=O)Cn3nc(C(C)C)c(OCC(C)C)cc3=O)(C1)C2` [Compound 111] are 1.47 µM and over 20 µM.
Taken in the same sequence, the figures for `CC(C)COc1cc(=O)n(CC(=O)NC23CC(CS(C)(=O)=O)(C2)C3)nc1C(C)C` [Compound 112] were 1.55 µM and over 20 µM.
In the same order, the values of `CC(C)COc1cc(=O)n(CC(=O)Nc2cc3ccccn3n2)nc1C(C)C` [Compound 113] are 1.79 µM and over 20 µM.
For `CC(C)c1nn(CC(=O)Nc2ccc3nncn3c2)c(=O)c(Cl)c1OCC(F)(F)F` [Compound 114], the AC50 (usually the concentration at which the activity in the assay is half-maximal) in test [1] is 1.85 µM; in test [2] it was over 20 µM.
As for `CC(C)COc1cc(=O)n(CC(=O)NC23CCC(NC(=O)OC(C)(C)C)(C2)C3)nc1C(C)C` [Compound 115], the figures for the AC50 in test [1] and in test [2] were 1.88 µM and over 20 µM, respectively.
In the same order, the values of `CC(C)COc1cc(=O)n(CC(=O)NC23CC(S(=O)(=O)C4CC4)(C2)C3)nc1C(C)C` [Compound 116] are 1.91 µM and over 20 µM.
Taken in the same sequence, the figures for `CC(C)COc1cc(=O)n(CC(=O)NC23CC(N)(C2)C3)nc1C(C)C` [Compound 117] were 2.04 µM and over 20 µM.
On to `CC(C)COc1c(C(C)C)nn(CC(=O)Nc2ccc3nncn3c2)c(=O)c1C(F)F` [Compound 118], for which the AC50 in test [1] is 2.3 µM; in test [2], over 20 µM.
Taken in the same sequence, the figures for `Cc1nnc(C23CC(NC(=O)Cn4nc(C(C)C)c(OCC(C)C)cc4=O)(C2)C3)o1` [Compound 119, 2-(4-isobutoxy-3-isopropyl-6-oxopyridazin-1(6H)-yl)-N-(3-(5-methyl-1,3,4-oxadiazol-2-yl)bicyclo[1.1.1]pentan-1-yl)acetamide] were 2.52 µM and over 20 µM.
In the same order, the values of `Cc1ccn2nc(NC(=O)Cn3nc(C(C)C)c(OCC(C)C)cc3=O)cc2n1` [Compound 120] are 2.66 µM and over 20 µM.
Taken in the same sequence, the figures for `CC(C)COc1cc(=O)n(CC(=O)NC23CC(N4CCCCC4)(C2)C3)nc1C(C)C` [Compound 121] were 2.71 µM and over 20 µM.
Regarding `CC(C)COc1cc(=O)n(CC(=O)N[C@]23CC[C@@](NC(=O)OC(C)(C)C)(CC2)C3)nc1C(C)C` [Compound 122, tert-butyl ((1r,4r)-4-(2-(4-isobutoxy-3-isopropyl-6-oxopyridazin-1(6H)-yl)acetamido)bicyclo[2.2.1]heptan-1-yl)carbamate], the AC50 is 2.81 µM in test [1] and over 20 µM in test [2].
In the same order, the values of `COc1ccc2nc(NC(=O)Cn3nc(C(C)C)c(OCC(C)C)cc3=O)nn2c1` [Compound 123] are 2.91 µM and over 20 µM.
Taken in the same sequence, the figures for `CC(C)COc1cc(=O)n(CC(=O)Nc2nc3ccc(C(F)(F)F)cn3n2)nc1C(C)C` [Compound 124] were 3.4 µM and over 20 µM.
`CC(C)COc1cc(=O)n(CC(=O)NC23C4C5C2C2C3C4C52C(=O)O)nc1C(C)C` (stereo not drawn) [Compound 125]: the AC50 in test [1] is 3.41 µM; in test [2] it was over 20 µM.
In the same order, the values of `CC(C)COc1cc(=O)n(CC(=O)Nc2cn3cc(Br)ncc3n2)nc1C(C)C` [Compound 126] are 3.56 µM and over 20 µM.
In the same order, the values of `CC(C)COc1c(C(C)C)nn(CC(=O)Nc2ccc3nncn3n2)c(=O)c1C(C)O` (stereo not drawn) [Compound 127] are 3.88 µM and 19.4 µM.
In the same order, the values of `CC(C)COc1cc(=O)n(CC(=O)Nc2nc3ccccc3o2)nc1C(C)C` [Compound 128] are 4.28 µM and over 20 µM.
As for `CC(C)COc1cc(=O)n(CC(=O)Nc2nc3ccc(Cl)cn3n2)nc1C(C)C` [Compound 129], the AC50 was 4.7 µM in test [1] and over 20 µM in test [2].
Taken in the same sequence, the figures for `Cc1cc(C(F)(F)F)n2nc(NC(=O)Cn3nc(C(C)C)c(OCC(C)C)cc3=O)nc2n1` [Compound 130, 2-(4-isobutoxy-3-isopropyl-6-oxopyridazin-1(6H)-yl)-N-(5-methyl-7-(trifluoromethyl)-[1,2,4]triazolo[1,5-a]pyrimidin-2-yl)acetamide] were 8.73 µM and over 20 µM.
In the same order, the values of `CC(C)COc1cc(=O)n(CC(=O)NC23CC(C(=O)O)(C2)C3)nc1C(C)C` [Compound 131, 3-(2-(4-isobutoxy-3-isopropyl-6-oxopyridazin-1(6H)-yl)acetamido)bicyclo[1.1.1]pentane-1-carboxylic acid] are 9.63 µM and over 20 µM.
As for `CC(C)COc1cc(=O)n(CC(=O)NC23CC(NC(=O)OC(C)(C)C)(C2)C3)nc1C(C)C` [Compound 132], the AC50 in test [1] was 9.79 µM; in test [2], over 20 µM.
Taken in the same sequence, the figures for `Cc1ccc2c(c1)nc(NC(=O)Cn1nc(C(C)C)c(OCC(C)C)cc1=O)n2C` [Compound 133] were over 10 µM and over 10 µM.
Taken in the same sequence, the figures for `CC(C)COc1cc(=O)n(CC(=O)Nc2nc3ccc(Cl)cc3n2C)nc1C(C)C` [Compound 134] were over 10 µM and over 10 µM.
Taken in the same sequence, the figures for `CC(C)COc1cc(=O)n(CC(=O)Nc2nc3ccc(Br)cc3n2C)nc1C(C)C` [Compound 135] were over 10 µM and over 10 µM.
Regarding `CC(C)COc1cc(=O)n(CC(=O)Nc2nc3ccc(F)cc3n2C)nc1C(C)C` [Compound 136], the AC50 in test [1] and in test [2] was over 10 µM each time.
For `CC(C)COc1cc(=O)n(CC(=O)Nc2nc3ccc(C#N)cc3o2)nc1C(C)C` [Compound 137], the results for the AC50 in test [1] and in test [2] were 10.2 µM and over 20 µM, respectively.
In the same order, the values of `CC(C)c1nn(CC(=O)Nc2ccc3nncn3c2)c(=O)c(Cl)c1OCCC(F)(F)F` [Compound 138] are 10.7 µM and over 20 µM.
In the same order, the values of `Cc1cnc(C23CC(NC(=O)Cn4nc(C(C)C)c(OCC(C)C)cc4=O)(C2)C3)o1` [Compound 139, 2-(4-isobutoxy-3-isopropyl-6-oxopyridazin-1(6H)-yl)-N-(3-(5-methyloxazol-2-yl)bicyclo[1.1.1]pentan-1-yl)acetamide] are 10.8 µM and over 20 µM.
Taken in the same sequence, the figures for `CC(C)COc1cc(=O)n(CC(=O)Nc2nc3ncccc3o2)nc1C(C)C` [Compound 140] were 11.8 µM and over 20 µM.
Regarding `CC(C)COc1cc(=O)n(CC(=O)Nc2nc3cc(Cl)ccc3o2)nc1C(C)C` [Compound 141, N-(5-chlorobenzo[d]oxazol-2-yl)-2-(4-isobutoxy-3-isopropyl-6-oxopyridazin-1(6H)-yl)acetamide], the concentration at half-maximal activity (AC50) was 12.2 µM in test [1] and over 20 µM in test [2].
In the same order, the values of `O=C(Cn1nc(OCC(F)(F)F)c(OCC(F)(F)F)cc1=O)Nc1ccc2nncn2n1` [Compound 142] are 15.7 µM and over 20 µM.
Taken in the same sequence, the figures for `CC(C)c1nn(CC(=O)Nc2ccc3nncn3n2)c(=O)cc1Oc1ccccc1` [Compound 143] were 18 µM and over 20 µM.
With `CC(C)COc1cc(=O)n(CC(=O)Nc2nc3cccnc3o2)nc1C(C)C` [Compound 144], the AC50 in test [1] and in test [2] was over 20 µM in each case.
Turning to `Cc1ccc2nc(NC(=O)Cn3nc(C(C)C)c(OCC(C)C)cc3=O)n(C)c2c1` [Compound 145], the concentration at half-maximal activity (AC50) in test [1] and in test [2] was over 20 µM each time.
In the case of `CC(C)COc1cc(=O)n(CC(=O)Nc2nc3ccc(C#N)cc3n2C)nc1C(C)C` [Compound 146], the AC50 in test [1] and in test [2] was over 20 µM each time.
For the compound `CC(C)COc1cc(=O)n(CC(=O)Nc2nc3ccccc3n2C)nc1C(C)C` [Compound 147], the half-maximal activity concentration (AC50) in test [1] and in test [2] was over 20 µM each time.
As for `CC(C)COc1cc(=O)n(CC(=O)Nc2nc3cc(C#N)ccc3n2C)nc1C(C)C` [Compound 148], the concentration at half-maximal activity (AC50) in test [1] and in test [2] was over 20 µM in each case.
As to `CC(C)COc1cc(=O)n(CC(=O)Nc2nc3cc(F)ccc3n2C)nc1C(C)C` [Compound 149], the concentration at half-maximal activity (AC50) in test [1] and in test [2] was over 20 µM in each case.
Take `CC(C)COc1cc(=O)n(CC(=O)Nc2nc3cc(Cl)ccc3n2C)nc1C(C)C` [Compound 150]: the half-maximal activity concentration (AC50) in test [1] and in test [2] was over 20 µM in each case.
As to `CC(C)COc1cc(=O)n(CC(=O)Nc2nc3cc(Br)ccc3n2C)nc1C(C)C` [Compound 151], the AC50 in test [1] and in test [2] was over 20 µM in each case.
`Cc1c(OCc2ccccc2)c(C(C)C)nn(CC(=O)Nc2ccc3nncn3c2)c1=O` [Compound 152]: the concentration at half-maximal activity (AC50) in test [1] and in test [2] was over 20 µM in each case.
Consider `CC(C)COc1cc(=O)n(CC(=O)NC23CCC(NC(=O)OC(C)(C)C)(CC2)CC3)nc1C(C)C` [Compound 153], for which the AC50 in test [1] and in test [2] was over 20 µM each time.
For the compound `COc1nn(CC(=O)Nc2ccc3nncn3n2)c(=O)cc1OCC(F)(F)F` [Compound 154], the AC50 in test [1] and in test [2] was over 20 µM in each case.
Take `CC(C)COc1c(C(C)C)nn(CC(=O)Nc2ccc3nncn3c2)c(=O)c1C(C)O` (stereo not drawn) [Compound 155]: the AC50 in test [1] and in test [2] was over 20 µM in each case.
On to `O=C(Cn1nc(OCC(F)(F)F)c(OCC(F)(F)F)cc1=O)Nc1ccc2nncn2c1` [Compound 156], for which the AC50 in test [1] and in test [2] was over 20 µM each time.
Regarding `CN(C)c1nn(CCO)c(=O)cc1OCC1CC1` [Compound 157, 5-(cyclopropylmethoxy)-6-(dimethylamino)-2-(2-hydroxyethyl)pyridazin-3(2H)-one], the concentration at half-maximal activity (AC50) in test [1] and in test [2] was over 20 µM each time.
